From patent US10765690B2, “TLR4 agonists and compositions thereof and their use in the treatment of cancer” (GlaxoSmithKline Intellectual Property Development Limited, priority 2015, dated 2020)
Where “and” joins values, the source holds several entries; their conditions need not be identical. Identical values can stand only once.

Assays:
[1] = system: CT-26 colorectal tumor cells; assay: CT-26 syngeneic colon carcinoma model, escalating i.p. doses (Example 9); assay type: in vivo, Balb/c mice
Excerpt: The CT26 mouse colon carcinoma (CT26.WT; ATCC #CRL-2638) cell line was obtained from ATCC. It is an N-nitroso-N-methylurethane-(NNMU) induced, undifferentiated colon carcinoma cell line known in the art. For example, it is described in: Wang M, et al. Active immunotherapy of cancer with a nonreplicating recombinant fowlpox virus encoding a model tumor-associated antigen. J. Immunol. 154: 4685-4692, 1995 (PubMed: 7722321), which is incorporated by reference in its entirety herein. For preparation of tumor cells, A frozen (−140° C.) vial of CT-26 (mouse colon carcinoma cells), from ATCC (cat # CRL-2638, lot #59227052) are thawed and cultured in basic RPMI (with 10% FBS) media over the following week.
CT-26 cells (passage 12) are harvested from the flask in complete medium. Cells are centrifuged and resuspended in RPMI (without FBS), this step is repeated 3 times. Cell density and viability are checked via trypan blue exclusion. Cells are then diluted to desired density (5×10^5 cells per mL) and kept on ice.
Escalating doses of CRX 527 are evaluated for their efficacy in reducing tumor growth. Animals are weighed and innoculated on the right hind quarter with 0.5×10^5 CT26 tumor cells per mouse on Day 0. A total of 130 mice are inoculated with tumor cells—assuming 30% failure rate (either too big or too small at time of start of study), the goal is to have n=10 for each group. After tumor cell innoculation, tumor growth and total body weight are measured 3 times a week for the duration of the study. Randomization occurs on day 10 or 11 when the average tumor volume is approximately 100 mm^3. Begining on the day of randomization, animals are dosed with CRX 527 or vehicle i.p. biweekly, for a total of 6 doses. Mice remain on study until tumors reach >2000 cu mm for two consecutive measurements, they are removed from study for other reasons (i.e. weight loss >20%, ulceration on tumor, etc.) or until the end of the study. After euthanization the tumors may be removed and subject to dissociation for flow analysis and/or FFPE for IHC analysis.
The above protocol was used to generate the results in FIG. 17 at the dosages indicated. In almost every case, Balb/c mice that were inoculated with 0.5×10^5 CT-26 colorectal tumor cells on the right hind quarter developed tumors that, when treated i.p. with vehicle (2% glycerol) only, and progressed as expected. […] FIG. 17.

[2] = system: Murine EMT6 breast epithelial cells; assay: EMT6 breast epithelial syngeneic solid tumor model; assay type: in vivo, Balb/c mice
Method: The in vivo anti-tumor efficacy of the TLR4 agonist (CRX-601) was assessed in the murine EMT6 breast epithelial syngeneic solid tumor model as a monotherapy versus control and anti-PD-1 treatment. Seven to eight week old female Balb/c mice (BALB/cAnNHsd, Envigo) were used in these studies. Murine EMT6 breast epithelial cells (ATCC catalog number lot # CRL-2755) were cultured in RPMI growth medium supplemented with 10% fetal bovine serum (FBS) in a humidified 37° C. incubator with 5% CO2. EMT6 cells cultured in logarithmic growth were harvested from tissue culture flasks and centrifuged for 5 minutes at 450×g at 4° C. for ten minutes to pellet cells. The supernatant was discarded, and cells were washed in ice cold phosphate buffered saline (PBS) without calcium and magnesium and centrifuged again for 5 minutes at 450×g at 4′C for ten minutes to pellet cells. The cells were resuspended in sterile RPMI media without FBS and adjusted to a cell concentration of 1×10^6 cells/ml. 100 μl of the cell stock was implanted via subcutaneous injection into the right flank of each Balb/c mouse. After seven or nine days when the average tumor size reached approximately 100 mm^3, mice were randomized into study cohorts according to tumor size and the first treatment dose was given. The TLR4 agonist (CRX-601) or vehicle was dosed via a systemic intravenous dose once per week for three total doses. The CRX-601 vehicle was 0.5% Glycerol/4% Dextrose, eE 810115-V. The rat anti-mouse PD-1 receptor antibody (clone RMP1-14, BioXCell catalog # BE0146, lot #5792-599016J1) or Rat IgG2a isotype control antibody (BioXCell catalog # BE0089,lot #601416M1B) was dosed via an intraperitoneal injection given every other day for a total of three doses, with the first dose given concurrently with the first CRX-601 dose. Caliper measurements were taken three times per week to assess tumor growth, and mice with tumors >2,000 mm^3 for 2 consecutive measurements or mice with tumors which formed open ulcers were removed from the study. Tumor volume was calculated using the formula (0.52)×(Length)×(Width2). All studies were conducted in accordance with the GSK Policy on the Care, Welfare and Treatment of Laboratory Animals and were reviewed by the Institutional Animal Care and Use Committee at GSK. To determine significance of tumor growth inhibition, tumor volumes 19 days post first dose were compared between the different treatment groups. Treatments were compared by standard ANOVA methods followed by FDR adjustment for multiplicity. Response is square root of volume, for homoscedasticity (equal variance) reasons. Kaplan-Meier (KM) method was carried out to estimate the survival probability of different treatment groups at a given time. For these survival analyses, “Death” means crossing the tumor volume cutoff (2000 mm3). “Survival” means proportion of mice not “Dead”, and “Survival time” means days until “Death”. If a mouse crossed the volume cutoff between two measurement days, then the day of “Death” was estimated by linear interpolation. If a mouse crossed the volume cutoff more than once, the first crossing was used. Treatments were compared by the standard log-rank test for two treatments. The log-rank p-values were adjusted for multiplicity using the FDR (false discovery rate) method. Significance was defined as FDR<=0.05. All calculations and graphs were done using R software, version 3.2.3.

Structure (SMILES): CCCCCCCCCCC[C@H](CC(=O)N[C@H]1[C@H](OC[C@H](NC(=O)C[C@@H](CCCCCCCCCCC)OCCCCCCCCCC)C(=O)O)O[C@H](CO)[C@@H](OP(=O)(O)O)[C@@H]1OC(=O)C[C@@H](CCCCCCCCCCC)OCCCCCCCCCC)OCCCCCCCCCC [CRX-601]
- Mean % Inhibition ([1]; 4 ug, study day 14 (9/16)): −59.63%
- Mean % Inhibition ([1]; 4 ug, study day 17 (9/19)): 4.57%
- Mean % Inhibition ([1]; 4 ug, study day 21 (9/23)): −1.55%
- Mean % Inhibition ([1]; 4 ug, study day 24 (9/26)): 21.73%
- Mean % Inhibition ([1]; 4 ug, study day 28 (9/30)): 7.65%
- Mean % Inhibition ([1]; 4 ug, study day 31 (10/3)): −34.14%
- Mean % Inhibition ([1]; 20 ug, study day 14 (9/16)): 42.34%
- Mean % Inhibition ([1]; 20 ug, study day 17 (9/19)): 69.46%
- Mean % Inhibition ([1]; 20 ug, study day 21 (9/23)): 50.75%
- Mean % Inhibition ([1]; 20 ug, study day 24 (9/26)): 66.96%
- Mean % Inhibition ([1]; 20 ug, study day 28 (9/30)): 50.75%
- Mean % Inhibition ([1]; 20 ug, study day 31 (10/3)): −18.27%
- Mean % Inhibition ([1]; 100 ug, study day 14 (9/16)): 68.20%
- Mean % Inhibition ([1]; 100 ug, study day 17 (9/19)): 92.51%
- Mean % Inhibition ([1]; 100 ug, study day 21 (9/23)): 98.50%
- Mean % Inhibition ([1]; 100 ug, study day 24 (9/26)): 93.21%
- Mean % Inhibition ([1]; 100 ug, study day 28 (9/30)): 94.68%
- Mean % Inhibition ([1]; 100 ug, study day 31 (10/3)): 80.15%
- increase in survival compared to vehicle group 1 ([2]; 25 ug CRX-601 IV, by day 33 post EMT6 inoculation, p-value=0.03): statistically significant
- mice remained on study ([2]; 25 ug CRX-601 group, day 33): 6 mice
- tumor free mice ([2]; 25 ug CRX-601 group, day 33): 4 mice
- tumor volumes of remaining tumor-bearing mice ([2]; 25 ug CRX-601 group, day 33, individual mice): 649 mm^3 and 382 mm^3
- tumor growth inhibition compared to vehicle group 1 ([2]; 25 ug CRX-601 intravenous once per week x3 (+200 ug Rat IgG2a), 19 days after the initial dose, p-value<0.001): statistically significant tumor growth inhibition
- tumor growth inhibition compared to anti-PD-1 treatment group 3 ([2]; 25 ug CRX-601 intravenous once per week x3, 19 days after the initial dose, p-value=0.041): statistically significant tumor growth inhibition
